Usually IC50 stands for the concentration needed to halve the response being measured. The Ki is a dissociation constant, usually derived from enzyme kinetics or from competition with a known ligand. A word on the inhibition: it is the relative decrease from the control value, in per cent. The term EC50 denotes the midpoint of the concentration-response curve. Read a low EC50 as higher potency in that assay. What is called ED50 is the midpoint of the dose-response relation.

This note sets out measurements from ChEMBL document CHEMBL4145579, “Plasmodial Kinase Inhibitors: License to Cure?” (J Med Chem, 2018).

SMILES strings stand for the structures. Where only a bound is given, the exact number is not on record here.

Assay [1] relates to Plasmodium berghei. The experiment in a line: Antiplasmodial activity Plasmodium berghei infected in po dosed mouse. Type of assay: functional.
The test system of assay [2] is Plasmodium falciparum. Kind of assay: Antiplasmodial activity drug-sensitive Plasmodium falciparum 3D7 infected in po dosed humanized SCID mouse assessed as decrease in blood parasitemia administered once daily for 4 days measure on day 7 by flow cytometric method. Type of assay: functional. (In general: In flow cytometry, cells or beads pass a laser one at a time.)

Assay [3] in a line: Inhibition of recombinant Plasmodium vivax PI4K.
In assay [4] the target is T1, Calcium-dependent protein kinase 1 (Plasmodium falciparum, UniProt P62344). The experiment in a line: Inhibition of Plasmodium falciparum recombinant His-tagged CDPK1 expressed in Escherichia coli BL21(DE3) after 1 hr in presence of [gamma33P]ATP by scintillation proximity assay. Background: Scintillation proximity formats need no separation of bound from free tracer.
T1 sequence (P62344 whole entry): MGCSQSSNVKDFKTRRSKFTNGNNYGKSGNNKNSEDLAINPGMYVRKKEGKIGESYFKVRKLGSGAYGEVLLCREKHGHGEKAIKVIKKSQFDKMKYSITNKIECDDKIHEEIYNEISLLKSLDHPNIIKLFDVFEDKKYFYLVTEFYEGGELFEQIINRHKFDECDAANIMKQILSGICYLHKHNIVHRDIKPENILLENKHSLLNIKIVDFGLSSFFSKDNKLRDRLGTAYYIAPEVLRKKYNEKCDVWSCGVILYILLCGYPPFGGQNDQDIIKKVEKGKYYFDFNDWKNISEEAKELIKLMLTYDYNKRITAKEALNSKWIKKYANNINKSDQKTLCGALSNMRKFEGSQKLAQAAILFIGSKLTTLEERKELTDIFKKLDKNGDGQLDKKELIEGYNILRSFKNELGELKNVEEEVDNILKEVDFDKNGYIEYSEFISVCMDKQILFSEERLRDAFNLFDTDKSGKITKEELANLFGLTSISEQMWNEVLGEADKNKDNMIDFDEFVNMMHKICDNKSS

For assay [5], the target named is Cyclin-dependent kinase 5/CDK5 activator 1 (Homo sapiens) (UniProt Q00535+Q15078). The experiment in a line: Inhibition of recombinant human N-terminal His6-tagged full length CDK5/recombinant human N-terminal GST-tagged full length p25 at 10 uM. Type of assay: protein-complex assay.
Chain of Cyclin-dependent kinase 5/CDK5 activator 1 (Homo sapiens) (Q00535 whole entry): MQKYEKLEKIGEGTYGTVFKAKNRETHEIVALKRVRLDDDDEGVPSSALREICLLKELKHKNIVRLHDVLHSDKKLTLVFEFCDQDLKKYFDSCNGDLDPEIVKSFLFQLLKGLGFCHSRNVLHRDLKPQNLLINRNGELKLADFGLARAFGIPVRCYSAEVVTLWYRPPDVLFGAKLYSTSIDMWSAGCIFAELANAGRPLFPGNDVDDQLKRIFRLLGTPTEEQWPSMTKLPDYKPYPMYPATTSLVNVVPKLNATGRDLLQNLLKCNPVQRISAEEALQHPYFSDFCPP
Chain of Cyclin-dependent kinase 5/CDK5 activator 1 (Homo sapiens) (Q15078 99-307 partner limits assumed): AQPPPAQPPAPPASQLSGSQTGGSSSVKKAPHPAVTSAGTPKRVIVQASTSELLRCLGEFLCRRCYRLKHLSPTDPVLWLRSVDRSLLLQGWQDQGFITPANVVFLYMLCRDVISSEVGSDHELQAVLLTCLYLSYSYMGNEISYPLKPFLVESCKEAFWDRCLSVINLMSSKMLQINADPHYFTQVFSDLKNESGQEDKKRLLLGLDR
In assay [6] the target is Mitogen-activated protein kinase 14 (Homo sapiens) (UniProt Q16539). The experiment in a line: Inhibition of recombinant human N-terminal GST-tagged full length SAPK2alpha expressed in Escherichia coli at 10 uM.
Chain of Mitogen-activated protein kinase 14 (Homo sapiens) (Q16539 whole entry, the tested form may be a part): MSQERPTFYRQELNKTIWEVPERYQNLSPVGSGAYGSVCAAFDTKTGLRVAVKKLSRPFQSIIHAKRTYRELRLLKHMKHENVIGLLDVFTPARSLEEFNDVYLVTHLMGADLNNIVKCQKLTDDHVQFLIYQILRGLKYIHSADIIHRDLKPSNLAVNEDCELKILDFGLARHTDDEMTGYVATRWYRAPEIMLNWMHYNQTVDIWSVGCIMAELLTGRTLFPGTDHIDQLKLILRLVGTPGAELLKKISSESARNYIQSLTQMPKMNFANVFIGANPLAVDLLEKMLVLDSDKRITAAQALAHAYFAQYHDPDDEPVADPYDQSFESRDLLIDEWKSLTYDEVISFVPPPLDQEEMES
In assay [7] the target is Fibroblast growth factor receptor 1 (Homo sapiens) (UniProt P11362). Kind of assay: Inhibition of recombinant human N-terminal GST-tagged FGFR1 (456 to 765 residues) expressed in Escherichia coli at 10 uM.
Chain of Fibroblast growth factor receptor 1 (Homo sapiens) (P11362 22-822 limits assumed): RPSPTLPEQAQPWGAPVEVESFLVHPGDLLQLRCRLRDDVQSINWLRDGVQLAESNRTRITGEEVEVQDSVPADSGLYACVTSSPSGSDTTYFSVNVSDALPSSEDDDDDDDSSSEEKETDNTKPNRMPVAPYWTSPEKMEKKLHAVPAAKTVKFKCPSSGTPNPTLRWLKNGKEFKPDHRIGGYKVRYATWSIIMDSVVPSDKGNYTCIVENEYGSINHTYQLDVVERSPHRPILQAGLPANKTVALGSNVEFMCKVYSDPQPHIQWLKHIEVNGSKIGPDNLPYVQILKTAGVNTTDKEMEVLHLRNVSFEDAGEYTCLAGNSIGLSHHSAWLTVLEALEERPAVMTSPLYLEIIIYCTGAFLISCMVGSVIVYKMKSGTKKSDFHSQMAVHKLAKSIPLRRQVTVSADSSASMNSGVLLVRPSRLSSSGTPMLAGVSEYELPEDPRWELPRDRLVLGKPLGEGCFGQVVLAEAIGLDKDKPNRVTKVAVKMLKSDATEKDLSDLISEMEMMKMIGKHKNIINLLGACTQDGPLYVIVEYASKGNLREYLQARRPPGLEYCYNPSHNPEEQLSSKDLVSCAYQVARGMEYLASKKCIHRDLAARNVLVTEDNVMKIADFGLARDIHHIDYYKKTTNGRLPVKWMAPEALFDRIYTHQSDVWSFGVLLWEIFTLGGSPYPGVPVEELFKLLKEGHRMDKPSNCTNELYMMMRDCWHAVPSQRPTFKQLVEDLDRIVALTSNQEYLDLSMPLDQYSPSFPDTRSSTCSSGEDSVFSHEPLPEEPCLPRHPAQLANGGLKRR
The test system of assay [8] is Plasmodium falciparum. The experiment in a line: Antiplasmodial activity against chloroquine-sensitive Plasmodium falciparum Dd2 gametocyte form infected in human erythrocytes by scintillation counting-based [3H]-hypoxanthine incorporation assay. Type of assay: functional, organism-based.
Assay [9] can be described thus: Inhibition of Plasmodium falciparum recombinant expressed in Toxoplasma gondii after 60 mins in presence of [33P]ATP by scintillation counting.
The test system of assay [10] is Plasmodium falciparum. The experiment in a line: Antiplasmodial activity against Plasmodium falciparum NF54 gametocyte form infected in human erythrocytes by scintillation counting-based [3H]-hypoxanthine incorporation assay. Type of assay: functional, organism-based.
Assay [11] has as its system Plasmodium falciparum. Kind of assay: Antiplasmodial activity against mature gametocytes of Plasmodium falciparum 3D7 […]. Type of assay: functional, organism-based.
A short description of assay [12]: Inhibition of Plasmodium falciparum PKG.
Assay [13] relates to Plasmodium falciparum. Kind of assay: Inhibition of Plasmodium falciparum NF54 exflagellation measured on day 15 post parasite growth. The format is functional, organism-based. Particulars: NF54, 360 h.
Assay [14] concerns Plasmodium falciparum. The experiment in a line: Antiplasmodial activity against Plasmodium falciparum NF54. The format is functional, organism-based.
Assay [15] deals with Plasmodium berghei. Kind of assay: Antiplasmodial activity Plasmodium berghei infected in ip dosed mouse. Type of assay: functional.
A short description of assay [16]: Inhibition of Plasmodium falciparum 3D7 6xHis-tagged PI3K helica domain expressed in Escherichia coli by Western blot analysis.
Assay [17] deals with T2, Calcium-dependent protein kinase 4 (Plasmodium falciparum (isolate 3D7), UniProt Q8IBS5).
T2 sequence (Q8IBS5 whole entry): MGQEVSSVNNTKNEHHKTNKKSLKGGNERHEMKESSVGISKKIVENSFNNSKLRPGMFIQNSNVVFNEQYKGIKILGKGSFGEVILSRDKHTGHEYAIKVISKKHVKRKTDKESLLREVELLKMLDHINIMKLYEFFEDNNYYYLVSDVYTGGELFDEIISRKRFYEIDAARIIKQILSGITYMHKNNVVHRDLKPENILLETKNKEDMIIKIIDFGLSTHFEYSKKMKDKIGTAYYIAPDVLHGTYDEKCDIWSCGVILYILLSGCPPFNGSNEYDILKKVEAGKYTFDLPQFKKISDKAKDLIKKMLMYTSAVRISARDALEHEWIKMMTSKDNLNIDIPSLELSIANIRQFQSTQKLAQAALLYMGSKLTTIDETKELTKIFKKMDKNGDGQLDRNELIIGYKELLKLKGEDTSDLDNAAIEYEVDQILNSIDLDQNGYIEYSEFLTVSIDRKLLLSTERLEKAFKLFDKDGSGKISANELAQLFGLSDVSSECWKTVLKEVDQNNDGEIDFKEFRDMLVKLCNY
Kind of assay: Inhibition of Plasmodium falciparum His-tagged CDPK4 expressed in Escherichia coli BL21(DE3) using […] as substrate after 10 mins in presence of ATP.

Assay [18] has as its system Plasmodium falciparum. Kind of assay: Antiplasmodial activity against Plasmodium falciparum FCB infected in human erythrocytes after 30 mins by FACS analysis. Type of assay: functional, organism-based. Particulars: 0.5 h.
In assay [19] the target is T1, Calcium-dependent protein kinase 1. Kind of assay: Inhibition of Plasmodium falciparum recombinant CDPK1 expressed in Escherichia coli expression system after 1 hr in presence of [gamma33P]ATP by scintillation proximity assay.
Assay [20] relates to Plasmodium falciparum. Kind of assay: Antiplasmodial activity against chloroquine-sensitive Plasmodium falciparum D6 infected in human red blood cells preincubated for 24 hrs followed by [3H]-hypoxanthine addition measured after 18 hrs by scintillation counting. The format is functional, organism-based.
The subject of assay [21] is Plasmodium falciparum. The experiment in a line: Antiplasmodial activity against Plasmodium falciparum infected in CD1 mouse at 100 mg/kg, po bid for 4 days. Type of assay: functional.
The subject of assay [22] is Plasmodium falciparum. The experiment in a line: Antiplasmodial activity against mature gametocytes of Plasmodium falciparum NF54 […] by standard membrane feeding assay. Type of assay: functional, organism-based.

Take `CS(=O)(=O)c1ccc(-c2cnc(N)c(-c3ccc(C(F)(F)F)nc3)c2)cc1` [MMV-048]: the figures for the ED90 with Plasmodium berghei [1] and in the assay with Plasmodium falciparum [2] were 0.8 mg/kg and 0.57 mg/kg, respectively. Besides, the IC50 in [3] turned out to be 3.4 nM.

Regarding `CCCNc1ccc2ncc(-c3cccc(O)c3)n2n1`, in assay [4], the Ki turned out to be 37 nM. Moreover, in [5], the inhibition was 89%.

Turning to `Cc1ccc(C(=O)c2c(N)c(C(N)=O)c3ccccn23)cc1`, the Ki in assay [4] is 262 nM. Moreover, the results for the inhibition in [6] and in assay [7] were 75% and 54%, respectively.

As for `COc1cc(-c2cc(-c3ccc(S(C)(=O)=O)cc3)cnc2N)ccc1O`, the ED90 in the assay with Plasmodium berghei [1] is 43.7 mg/kg. Also, the IC50 in [3] was found to be 10 nM.

Consider `CN1CCC(c2cc(-c3ccncc3)c(-c3ccc(F)cc3)[nH]2)CC1`, for which the IC50 in the assay with Plasmodium falciparum [8] turned out to be 1300 nM; in assay [9], 3.5 nM; in the assay with Plasmodium falciparum [10], 490 nM; with Plasmodium falciparum [11], 490 nM.

With `CN(C)Cc1ccn2c(-c3ccnc(NCC4CC4)n3)c(-c3cccc(S(C)(=O)=O)c3)nc2c1`, the IC50 in [12] came out at 0.13 nM; in the assay with Plasmodium falciparum [11], 102 nM.

Consider `CCOc1ccc2cc(-c3nn(CC4CCNCC4)c4ncnc(N)c34)ccc2c1`, for which the EC50 worked out at 35 nM in the assay on Plasmodium falciparum [13] and 2 µM in the assay on Plasmodium falciparum [14].

In the assay with Plasmodium berghei [15], `C[C@H]1[C@@H](O)O[C@@H]2O[C@@]3(C)CC[C@H]4[C@H](C)CC[C@@H]1[C@@]24OO3` [ARTENIMOL] had an ED50 of 1.95 mg/kg. The IC50 in assay [16] worked out at 0.0041 µM; in the assay with Plasmodium falciparum [14], 3 nM.

`CN1CCN(CCCN2c3ccccc3Sc3ccc(C(F)(F)F)cc32)CC1` [TRIFLUOPERAZINE]: the Ki in [17] was 150 µM. This compound came in with an EC50 with Plasmodium falciparum [18] of 1900 nM.

For the compound `CCOc1ccc2cc(-c3nn(CC4CCN(C)CC4)c4ncnc(N)c34)ccc2c1`, the EC50 in the assay on Plasmodium falciparum [13] amounted to 47 nM; in the assay on Plasmodium falciparum [14], 8 µM.

In the case of `N[C@H]1CC[C@H](Nc2nc(Nc3ccc(C(=O)N4CCCCC4)cc3)c3ncn(-c4cccc(F)c4)c3n2)CC1` [PURFALCAMINE], the IC50 in assay [19] lay in the range of 13 to 17 nM.

Turning to `O=c1cc(N2CCOCC2)oc2c(-c3ccccc3)cccc12` [LY-294002], the results for the IC50 (in [16]; in the assay on Plasmodium falciparum [14]) were 25 µM and 3000 nM, respectively.

Regarding `O=C1Nc2ccc(Br)cc2/C1=C\C(=O)c1ccc(F)cc1`, in the assay on Plasmodium falciparum [20], the IC50 is above 14 µM.

For `Cc1cn2c(-c3ccnc(NCC4CC4)n3)c(-c3ccc(F)c(NS(C)(=O)=O)c3)nc2cc1CN(C)C`, the Activity in the assay on Plasmodium falciparum [21] turned out to be 99.9%. Further, the IC50 was found to be 0.16 nM in assay [12], 41 nM with Plasmodium falciparum [22] and 2.1 nM with Plasmodium falciparum [11].
